Measured values from ChEMBL document CHEMBL1909294, “Translating clinical findings into knowledge in drug safety evaluation--drug induced liver injury prediction system (DILIps)” (PLoS Comput Biol, 2011).

Legend:
[1] = system: Hepatotoxicity;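 for HepSE cholecystitis: Cholecystitis-related hepatic side effect score drawn from the DILIps (drug-induced liver injury prediction) training data set; call rule not given here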;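 for HepSE cholelithiasis: hepatic side effect score for cholelithiasis, drawn from the DILIps training data for predicting drug-induced liver injury; call rule not given here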;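 for HepSE cirrhosis: cirrhosis hepatic side effect score taken from the DILIps (drug-induced liver injury prediction) training set; call rule not given here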;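 for HepSE hepatitis: Hepatitis-related hepatic side effect score taken from the training data of DILIps, a prediction system for drug-induced liver injury; call rule not given here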;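 for HepSE hepatomegaly: hepatic side effect score for hepatomegaly, taken from the training set of the DILIps drug-induced liver injury prediction system; call rule not given here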; for HepSE liver disease: call rule not given here;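 for HepSE liver function tests abnormal: hepatic side effect score taken from the DILIps (drug-induced liver injury prediction system) training data, here covering abnormal liver function test findings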
[2] = system: Hepatotoxicity; remark: listed apart in the source;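 for HepSE cholecystitis: Cholecystitis-related hepatic side effect score drawn from the DILIps (drug-induced liver injury prediction) training data set; call rule not given here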;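 for HepSE cholelithiasis: hepatic side effect score for cholelithiasis, drawn from the DILIps training data for predicting drug-induced liver injury; call rule not given here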;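 for HepSE cirrhosis: cirrhosis hepatic side effect score taken from the DILIps (drug-induced liver injury prediction) training set; call rule not given here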;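 for HepSE hepatitis: Hepatitis-related hepatic side effect score taken from the training data of DILIps, a prediction system for drug-induced liver injury; call rule not given here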;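 for HepSE hepatomegaly: hepatic side effect score for hepatomegaly, taken from the training set of the DILIps drug-induced liver injury prediction system; call rule not given here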; for HepSE liver disease: call rule not given here
[3] = system: Hepatotoxicity; remark: listed apart in the source;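 for HepSE cholecystitis: Cholecystitis-related hepatic side effect score drawn from the DILIps (drug-induced liver injury prediction) training data set; call rule not given here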;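 for HepSE cholelithiasis: hepatic side effect score for cholelithiasis, drawn from the DILIps training data for predicting drug-induced liver injury; call rule not given here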;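 for HepSE cirrhosis: cirrhosis hepatic side effect score taken from the DILIps (drug-induced liver injury prediction) training set; call rule not given here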;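 for HepSE hepatitis: Hepatitis-related hepatic side effect score taken from the training data of DILIps, a prediction system for drug-induced liver injury; call rule not given here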;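 for HepSE hepatomegaly: hepatic side effect score for hepatomegaly, taken from the training set of the DILIps drug-induced liver injury prediction system; call rule not given here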; for HepSE liver disease: call rule not given here
[4] = system: Hepatotoxicity; remark: listed apart in the source;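 for HepSE cholecystitis: Cholecystitis-related hepatic side effect score drawn from the DILIps (drug-induced liver injury prediction) training data set; call rule not given here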;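 for HepSE cholelithiasis: hepatic side effect score for cholelithiasis, drawn from the DILIps training data for predicting drug-induced liver injury; call rule not given here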;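 for HepSE cirrhosis: cirrhosis hepatic side effect score taken from the DILIps (drug-induced liver injury prediction) training set; call rule not given here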;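 for HepSE hepatitis: Hepatitis-related hepatic side effect score taken from the training data of DILIps, a prediction system for drug-induced liver injury; call rule not given here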;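 for HepSE hepatomegaly: hepatic side effect score for hepatomegaly, taken from the training set of the DILIps drug-induced liver injury prediction system; call rule not given here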; for HepSE liver disease: call rule not given here
[5] = system: Hepatotoxicity; remark: listed apart in the source; for HepSE liver disease: call rule not given here
[6] = system: Hepatotoxicity; remark: listed apart in the source; for HepSE liver disease: call rule not given here
[7] = system: Hepatotoxicity; remark: listed apart in the source
[8] = system: Hepatotoxicity; remark: listed apart in the source
[9] = system: Hepatotoxicity; remark: listed apart in the source
[10] = system: Hepatotoxicity; remark: listed apart in the source
[11] = system: Hepatotoxicity; remark: listed apart in the source
[12] = system: Hepatotoxicity; remark: listed apart in the source
[13] = system: Hepatotoxicity; remark: listed apart in the source
[14] = system: Hepatotoxicity; remark: listed apart in the source

| Compound | HepSE_liver disease [1] | HepSE_hepatitis [2] | HepSE_cirrhosis [3] | HepSE_hepatomegaly [4] | HepSE_bilirubinemia [5] | HepSE_cholelithiasis [6] | HepSE_cholecystitis [7] | HepSE_liver function tests abnormal [8] | HepSE_liver fatty [9] | HepSE_elevated liver function tests [10] | HepSE_jaundice [11] | HepSE_hepatic failure [12] | HepSE_hepatic necrosis [13] | HepSE_Combined Scores [14] |
| --- | --- | --- | --- | --- | --- | --- | --- | --- | --- | --- | --- | --- | --- | --- |
| Oc1ccc2c(c1)[C@@]13CCCC[C@@]1(O)[C@@H](C2)N(CC1CCC1)CC3 [BUTORPHANOL] | 0 | 0 | 0 | 0 | 0 | 0 | 0 | 0 | 0 | 0 | 0 | 0 | 0 | 0 |
| CC(=O)NS(=O)(=O)c1ccc(N)cc1 [SULFACETAMIDE] | 0 | 0 | 0 | 0 | 0 | 0 | 0 | 0 | 0 | 0 | 0 | 0 | 1 | 1 |
| CC12CC3CC(C)(C1)CC(N)(C3)C2 [MEMANTINE] | 0 | 1 | 0 | 0 | 0 | 1 | 0 | 0 | 0 | 0 | 0 | 1 | 0 | 3 |
| CC1(C)O[C@@H]2C[C@H]3[C@@H]4CCC5=CC(=O)C=C[C@]5(C)[C@H]4[C@@H](O)C[C@]3(C)[C@]2(C(=O)CO)O1 [DESONIDE] | 0 | 0 | 0 | 0 | 0 | 0 | 0 | 0 | 0 | 0 | 0 | 0 | 0 | 0 |
| CN1CC(=O)N2[C@H](c3ccc4c(c3)OCO4)c3[nH]c4ccccc4c3C[C@@H]2C1=O | 0 | 0 | 0 | 0 | 0 | 0 | 0 | 1 | 0 | 0 | 0 | 0 | 0 | 1 |
| C=CCC1(C(C)CCC)C(=O)NC(=O)NC1=O (stereo unspecified) [SECOBARBITAL] | 0 | 0 | 0 | 0 | 0 | 0 | 0 | 0 | 0 | 0 | 0 | 0 | 0 | 0 |
| CNC(=C[N+](=O)[O-])NCCSCc1ccc(CN(C)C)o1 [RANITIDINE] | 1 | 1 | 0 | 0 | 0 | 0 | 0 | 0 | 0 | 0 | 1 | 1 | 0 | 4 |
| CCN(CC)CCOC(=O)c1ccc(N)cc1 [PROCAINE] | 0 | 0 | 0 | 0 | 0 | 0 | 0 | 0 | 0 | 0 | 0 | 0 | 0 | 0 |
| CCCCCCCCCCCCCCCCCCCCCCO [DOCOSANOL] | 0 | 0 | 0 | 0 | 0 | 0 | 0 | 0 | 0 | 0 | 0 | 0 | 0 | 0 |
